Data reported in ChEMBL document CHEMBL4483862, “Open-source discovery of chemical leads for next-generation chemoprotective antimalarials” (2018).
pIC50: −log10 of the molar value.

System: Plasmodium berghei
Experiment: Luciferase/luciferin-expressing antifolate-resistant parasites were used to infect a culture of HepG2 cells that were pre-incubated with compounds. Infected hepatocytes emit light due to the luciferase reaction. Assay results are presented as the percent inhibition of light emission compared to control. […]
Type: functional
Conditions: sporozoite; for pIC50: read-out: LUCIFERASE INFECTION ASSAY - IC50; for IC90: read-out: LUCIFERASE INFECTION ASSAY - IC90

Row | Compound | pIC50 | IC90
1 | CCOc1ccc(/C=C/C(=O)C(C(N)=O)=C2SCCS2)cc1 | < 5.00 | > 10 µM
2 | COc1ccccc1/C=C(/CC(=O)NCc1ccc2c(c1)OCO2)c1nc2ccccc2s1 | < 5.00 | > 10 µM
3 | O=C(CN1C(=O)C(=O)N(C2CCCC2)C1=O)Nc1cc(Cl)ccc1[N+](=O)[O-] | < 5.00 | > 10 µM
4 | CCOc1cc(N2CCOCC2)c(OCC)cc1NC(=O)COc1ccc(-c2nnco2)cc1 | < 5.00 | > 10 µM
5 | CC(OC(=O)C1CC1)C(=O)Nc1ccnn1C(C)C (stereo not drawn) | < 5.00 | > 10 µM
6 | O=C(OCc1csc(-c2ccccc2)n1)c1ccccc1Sc1ccc(C(F)(F)F)cc1[N+](=O)[O-] | < 5.00 | > 10 µM
7 | C/C(N)=C(/C#N)C(=O)COC(=O)CCN1C(=O)C2CC=CCC2C1=O (stereo not drawn) | < 5.00 | > 10 µM
8 | N#Cc1cc(C(=O)c2cc(F)ccc2OC(=O)C2(c3ccccc3)CC2)cn(Cc2ccccc2)c1=O | < 5.00 | > 10 µM
9 | CCC(CC)c1nnc(NC(=O)/C=C/c2cn(-c3ccccc3)nc2-c2ccc(F)cc2)s1 | < 5.00 | > 10 µM
10 | O=[N+]([O-])c1cccc2nc(/C=C/c3nn(Cc4ccccc4)cc3-c3cccnc3)ccc12 | < 5.00 | > 10 µM
11 | Cc1cc(C)cc(N(C(=O)Cc2coc3cc(C)ccc23)c2nc(-c3ccc(F)cc3)cs2)c1 | < 5.00 | > 10 µM
12 | CCOc1ncccc1C(=O)NCC(c1ccc(OC)cc1)N1CCCCC1 (stereo not drawn) | < 5.00 | > 10 µM
13 | Cc1cccc(/C=C2\SC(=O)N(CCC(=O)Nc3ccc(-c4nnc5n4CCCCC5)cc3)C2=O)c1 | < 5.00 | > 10 µM
14 | Cc1ccc(Cn2nc(C)c3cc(C(=O)OCC(=O)c4cc(C)n(CC5CCCO5)c4C)sc32)cc1 (stereo not drawn) | < 5.00 | > 10 µM
15 | COc1ccc(-c2nnc(SCC(=O)Nc3cc(-c4cc(C)c(C)cc4C)nn3-c3ccccc3)n2C(C)C)cc1 | < 5.00 | > 10 µM
16 | CC(=O)Nc1sc2c(c1C(=O)OCC(=O)Nc1cc(S(=O)(=O)N3CCOCC3)ccc1Cl)CCCC2 | < 5.00 | > 10 µM
17 | Cc1cc(C(C)(C)C)ccc1OC(=O)c1sc2nc3n(c(=O)c2c1C)CCCCC3 | < 5.00 | > 10 µM
18 | Cc1cc(O)c(CN2CCN(S(=O)(=O)/C=C/c3ccccc3)CC2)cc1C(C)C | < 5.00 | > 10 µM
19 | COCC(C)n1c(C)cc(C(=O)COC(=O)[C@@H]2CCCN2C(=O)c2cccs2)c1C (stereo partly drawn) | < 5.00 | > 10 µM
20 | O=C1/C(=C\Nc2nnc(-c3ccccc3)c(-c3ccccc3)n2)c2ccccc2C(=O)N1c1cccc(C(F)(F)F)c1 | < 5.00 | > 10 µM

Row | Compound | pIC50 | IC90
21 | CC(C)N(C(=O)CN1CCN(c2ccccc2Cl)CC1)c1ccc(Nc2ccccc2)cc1 | 5.32 | > 10 µM
22 | CCOc1ccc(OCc2ccc(C(=O)NNC3CC(=O)N(CCOC)C3=O)cc2)cc1 (stereo not drawn) | < 5.00 | > 10 µM
23 | CCCCC(=O)OCC(=O)Nc1nc(-c2ccc(C)cc2O)cs1 | < 5.00 | > 10 µM
24 | Cc1ccc(O)c(-c2cc(-c3ccccc3)c3ccccc3n2)c1 | < 5.00 | > 10 µM
25 | COc1ccc(CNC(=O)Cn2ncc(Cl)c(Cl)c2=O)cc1OC | < 5.00 | > 10 µM
26 | C=CCN(CC(=O)NCc1ccc2c(c1)OCO2)S(=O)(=O)c1ccc(Cl)c(Cl)c1 | < 5.00 | > 10 µM
27 | CN(CC(=O)Nc1ccc(N2CCOCC2)cc1)Cn1nc(-c2cccs2)n(CC2CCCO2)c1=S (stereo not drawn) | < 5.00 | > 10 µM
28 | NC(=O)c1c(NC(=O)COC(=O)C2=NN(c3ccccc3)C(=O)CC2)sc2c1CCC2 | < 5.00 | > 10 µM
29 | CSCCC(NC(=O)c1ccc([N+](=O)[O-])cc1Cl)C(=O)OCC(=O)Nc1ccc(OC(F)(F)F)cc1 (stereo not drawn) | < 5.00 | > 10 µM
30 | O=C(COC(=O)c1cc(-c2ccc(Cl)cc2)nc2ccccc12)Nc1cc(C(F)(F)F)ccc1-n1cncn1 | < 5.00 | > 10 µM
31 | COc1ccc(Br)cc1/C=C/c1ccc2c([N+](=O)[O-])cccc2n1 | < 5.00 | > 10 µM
32 | Cc1cc(C)c(S(=O)(=O)N2CCN(C(=O)CCCOc3ccc(Cl)c(C)c3)CC2)c(C)c1 | < 5.00 | > 10 µM
33 | COc1cc(C(=O)NCC(c2ccco2)N2CCCCC2)ccc1Oc1ccc(Cl)cc1[N+](=O)[O-] (stereo not drawn) | 5.23 | > 10 µM
34 | COc1cccc(N2C(=O)CC(n3nc(Nc4cccc(C)c4)sc3=S)C2=O)c1 (stereo not drawn) | < 5.00 | > 10 µM
35 | FC(F)Sc1ccc(NC(=S)NCC(c2ccco2)N2CCCCC2)cc1 (stereo not drawn) | 5.21 | > 10 µM
36 | O=C(CN(Cc1ccco1)C(=O)c1ccc(-c2cccc(C(F)(F)F)c2)o1)Nc1ccccc1Br | < 5.00 | > 10 µM
37 | O=C(NNC(=O)c1ccccc1F)c1ccc(N2CCCC2=O)cc1 | < 5.00 | > 10 µM
38 | CCCn1c(SCC2=C(C(=O)OCC)C(C)NC(=O)N2)nc2sc3c(c2c1=O)CCC(C(C)(C)CC)C3 (stereo not drawn) | < 5.00 | > 10 µM
39 | Nn1c(SC2CCCCC2=O)nnc1C1CCCCC1 (stereo not drawn) | < 5.00 | > 10 µM
